Test results: US20240299535A1, “TARGETED GLYCOSAMINOGLYCAN-PARTICLES AND METHODS OF USE” (priority 2021, published 2024)

What was measured:
[1] = test system: RAW 264.7 macrophages; experiment: Endocytosis inhibition study of HEP-AuNP uptake (ICP-MS); assay type: cell-based, murine; conditions: for effect on nanoparticle cellular uptake / nanoparticle cellular uptake inhibition efficiencies: inhibitor screen, 1 h pre-incubation, nanoparticles 1.5 hours; for inhibitory effects for nanoparticle uptake: dose escalation, 0-31.4 μM chlorpromazine, 0-3.9 μM cytochalasin D
Description: Panel (A) is a schematic representation of the uptake pathway study: (i) non-specific endocytosis inhibition to determine whether nanoparticle cellular uptake is energy-dependent. (ii-iv) Specific endocytosis inhibitors for studying (ii) caveolae-mediated endocytosis, (iii) clathrin-mediated endocytosis, and (iv) macropinocytosis. Panels (B) to (D) are ICP-MS quantification of the nanoparticle cellular uptake in RAW 264.7 macrophages at 4° C.—Panel (B), in the presence of ATPase inhibitor sodium azide—Panel (C), or chemical endocytosis inhibitors of caveolae-mediated endocytosis, clathrin-mediated endocytosis, and […]—Panel (D). AuNPs modified with 13-kDa HEP (at 0.2 nM) were used as control without inhibitors at 37° C. Bars indicate mean±SD (n=3-4); statistical tests used one-way ANOVA (p<0.0001 (****); p<0.0021 (**); p<0.0332 (*).
We hypothesized that these nanoparticles might enter cells via endocytosis by one or more energy-dependent uptake pathways. Thus, we carried out a systematic endocytosis inhibition study to discern which uptake pathways were involved.
First, we pre-incubated the innate immune cells for 1 h with the endocytosis inhibitors. Then we added the nanoparticles and incubated them with the cells for 1.5 hours. We imaged the cells with a light microscope and quantified the nanoparticle uptake by ICP-MS (FIG. 2, Panel (D)).
(§1) We performed systematic dose escalation studies to assess the dose-response of the inhibitory effect and the cell toxicity of these two agents. Based on the previous dose screening experiments and published cell viability data the dose ranges were 0-31.4 μM and 0-3.9 μM for chlorpromazine and cytochalasin D, respectively.

[2] = test system: DC 2.4 dendritic cells; experiment: as above; assay type: cell-based, murine
Description: To test whether the HEP-coated nanoparticles could enter cells through clathrin-mediated endocytosis and macropinocytosis and/or phagocytosis in another immune cell line, we conducted further inhibition experiments in DC 2.4 dendritic cells. […] Additionally, we co-incubated chlorpromazine and cytochalasin D inhibitors with cells to test if there was any additive endocytosis inhibitory effect.

[3] = test system: RAW264.7 macrophages; experiment: Cell viability assays with endocytosis inhibitors; conditions: 0-31.4 μM chlorpromazine, 0-3.9 μM cytochalasin D
Description: as §1

[4] = test system: RAW 264.7 macrophages; experiment: HEP structural analog competition of HEP-AuNP uptake (ICP-MS); assay type: cell-based, murine; conditions: pre-incubation with competitor
Source text: To quantify the nanoparticles' cellular interactions, we performed quantitative ICP-MS and corroborated the results qualitatively with light microscopy. […] No significant competition with the remaining structural analogs was observed.

[5] = test system: cell uptake of HEP-AuNPs; experiment: CS A competition as a function of time and concentration (ICP-MS); assay type: cell-based
Source text: We further assessed the competition effect of CS A as a function of time and concentration at non-cytotoxic levels. […] These competition experiments with GAG structural analog polymers imply that CS A can substitute to some degree as a ligand for HEP for the internalization receptor(s).

[6] = test system: RAW 264.7 macrophages
Source text: We next investigated whether the CS A inhibitory effect of HEP-AuNP uptake was due to a potential toxicity effect of the CS A preparation, which was extracted from a mammalian source.

[7] = test system: DC 2.4 dendritic cells; experiment: CS A competition of HEP-AuNP uptake (ICP-MS); assay type: cell-based, murine; conditions: 1 hour pre-incubation, nanoparticles 2.5 hour; non-cytotoxic doses
Source text: Next, we expanded the structural analog competition study to DC 2.4 dendritic cells. […] We quantified the competition efficiency by ICP-MS and corroborated the results with light microscopy.

O=C(N/N=C/c1ccc(O)c(O)c1)c1cc2ccccc2cc1O [Dynasore]
effect on nanoparticle cellular uptake [1]: did not reduce the nanoparticle cellular uptake

CCN(c1nc(N)c(C(=O)N=C(N)N)nc1Cl)C(C)C [EIPA, 5-(N-ethyl-N-isopropyl) amiloride]
effect on nanoparticle cellular uptake [1]: did not reduce the nanoparticle cellular uptake

CCCCC[C@@H](O)[C@H]1C(=O)O[C@H](C)[C@@H](O)/C=C/C=C/C=C/C=C/C=C(\C)[C@@H](O)C[C@H](O)C[C@H](O)C[C@H](O)C[C@H](O)C[C@H](O)C[C@@H]1O [Filipin]
effect on nanoparticle cellular uptake [1]: did not reduce the nanoparticle cellular uptake

CCN1C(=O)C=CC1=O [N-ethylmaleimide]
effect on nanoparticle cellular uptake [1]: did not reduce the nanoparticle cellular uptake

CCN(CC)CCCC(C)Nc1ccnc2cc(Cl)ccc12 (centres unmarked) [chloroquine]
nanoparticle cellular uptake inhibition efficiencies [1]: ~12%

CN(C)CCCN1c2ccccc2Sc2ccc(Cl)cc21 [chlorpromazine]
reduction of HEP-AuNP uptake [2]: approximately 77%
cytotoxicity of inhibitor doses [3]: not cytotoxic
inhibitory effects for nanoparticle uptake [1]: approximately 70%
nanoparticle cellular uptake inhibition efficiencies [1]: approximately 73%

C=C1[C@@H](C)[C@H]2[C@H](Cc3ccccc3)NC(=O)[C@]23[C@H](OC(C)=O)/C=C/[C@@](C)(O)C(=O)[C@@H](C)C/C=C/[C@H]3[C@@H]1O [cytochalasin D]
reduction of HEP-AuNP uptake [2]: approximately 77%
cytotoxicity of inhibitor doses [3]: not cytotoxic
inhibitory effects for nanoparticle uptake [1]: approximately 51%
nanoparticle cellular uptake inhibition efficiencies [1]: ~24%

CN(C)CCCN1c2ccccc2CCc2ccccc21 [imipramine]
nanoparticle cellular uptake inhibition efficiencies [1]: ~8%

[N-]=[N+]=[N-] [sodium azide]
reduction of cellular uptake of HEP-AuNPs ([1]; 0.1% w/v sodium azide): approximately 22%

Chondroitin Sulfate A [CS A]
reduction of cellular uptake of HEP-AuNPs vs no-competitor group [4]: ~43%
IC50 (inhibitor dose-response of HEP-AuNP uptake) [5]: 500 µg/mL
inhibitory effect over time ([5]; 1 mg/mL): persisted throughout time
suppression of cellular uptake of HEP-AuNPs ([5]; 2 mg/mL): up to 9 fold
effect on cell viability [6]: did not affect cell viability
nanoparticle uptake vs no-competitor group [7]: lower nanoparticle uptake

Chondroitin Sulfate C [CS C]
reduction of cellular uptake of HEP-AuNPs vs no-competitor group [4]: approximately 15%

heparin
reduction of cellular uptake of HEP-AuNPs vs no-competitor group [4]: approximately 18%
